From patent US7229987B2, “Multicyclic compounds for use as melanin concentrating hormone antagonists in the treatment of obesity and diabetes” (Eli Lilly and Company, priority 2002, dated 2007)
Counter-ions that a name gives are not always drawn.

melting point | Compound
69 to 70 °C | CN(C)CCCOc1ccc(-c2nnc(CSCCOc3ccccc3)o2)cn1 [Example 288, dimethyl-(3-{5-[5-(2-phenoxy-ethylsulfanylmethyl)-[1,3,4]oxadiazol-2-yl]-pyridin-2-yloxy}-propyl)-amine]
60 °C | c1ccc(OCCSCc2nnc(-c3ccc(OCCCN4CCC4)cc3)o2)cc1 [Example 263, 2-[4-(3-azetidin-1-yl-propoxy)-phenyl]-5-(2-phenoxy-ethylsulfanylmethyl)-[1,3,4]oxadiazole]
105 to 107 °C | CN(C)CCNC(=O)Nc1ccc(-c2cnc(CSCCOc3ccccc3)o2)cc1.O=C(O)/C=C\C(=O)O [Example 250, 1-(2-Dimethylamino-ethyl)-3-{4-[2-(2-phenoxy-ethylsulfanylmethyl)-oxazol-5-yl]-phenyl}-urea maleate]
70 to 72 °C | CN(C)CCCOc1ccc(-c2nnc(CSCCOc3ccccc3)o2)cc1F.O=C(O)/C=C\C(=O)O [Example 287, (3-{2-fluoro-4-[5-(2-phenoxy-ethylsulfanylmethyl)-[1,3,4]oxadiazol-2-yl]-phenoxy}-propyl)-dimethyl-amine; maleic acid salt]
71.5 to 72 °C | CN(C)CCCOc1ccc(-c2nnc(CSCCOCc3ccccc3)o2)cc1 (as salt: maleate) [Example 282, (3-{4-[5-(2-phenylmethoxy-ethylsulfanylmethyl)-[1,3,4]oxadiazol-2-yl]-phenoxy}-propyl)-dimethyl-amine]
149 to 150 °C | CN1CCC(Oc2ccc(-c3nnc(CSCCOc4ccccc4)o3)cc2)CC1.O=C(O)/C=C\C(=O)O [Example 291, 1-methyl-4-{4-[5-(2-phenoxy-ethylsulfanylmethyl)-[1,3,4]oxadiazol-2-yl]-phenoxy}-piperidine; maleic acid salt]
124 to 126 °C | O=C(NCCN1CCCC1)Nc1ccc(-c2cnc(COCc3cc4ccccc4o3)o2)cc1 [Example 255, 1-{4-[2-(Benzofuran-2-ylmethoxymethyl)-oxazol-5-yl]-phenyl}-3-(2-pyrrolidin-1-yl-ethyl)-urea]
32 to 35 °C | c1ccc(OCCSCc2ncc(-c3ccc(OCCCN4CCCCCC4)cc3)o2)cc1 [Example 266, 1-(3-{4-[2-(2-phenoxy-ethylsulfanylmethyl)-oxazol-5-yl]-phenoxy}-propyl)-azepane]

More lines, now with the values behind:

Compound | melting point
CN(C)CCCNC(=O)c1ccccc1-c1nnc(CSCCOc2ccccc2)o1 [Example 65, N-(3-dimethylamino-propyl)-2-[5-(2-phenoxy-ethylsulfanylmethyl)-[1,3,4]oxadiazol-2-yl]-benzamide] | 60 to 65 °C
c1ccc(OCCSCc2nnc(-c3ccc(OCCN4CCSCC4)cc3)o2)cc1 [Example 90, 4-(2-{4-[5-(2-phenoxy-ethylsulfanylmethyl)-[1,3,4]oxadiazol-2-yl]-phenoxy}-ethyl)-thiomorpholine] | 60 °C
O=C(NCCN1CCCC1)Nc1ccc(-c2nnc(CSCCOc3ccccc3)o2)cc1.O=C(O)C(=O)O [Example 106, 1-{4-[5-(2-phenoxy-ethylsulfanylmethyl)-[1,3,4]oxadiazol-2-yl]-phenyl}-3-(2-pyrrolidin-1-yl-ethyl)-urea oxalate] | 111 to 115 °C
c1ccc(OCCSCc2nnc(-c3ccc(OCc4ccncc4)cc3)o2)cc1 [Example 98, 4-{4-[5-(2-phenoxy-ethylsulfanylmethyl)-[1,3,4]oxadiazol-2-yl]-phenoxymethyl}-pyridine] | 80 to 90 °C
c1csc(SCc2nnc(-c3ccc(OCCCN4CCCCC4)cc3)o2)n1 (as salt: hydrochloride) [Example 226, 1-(3-{4-[5-(thiazol-2-ylsulfanylmethyl)-[1,3,4]oxadiazol-2-yl]phenoxy}propyl)piperdine] | 174 to 176 °C
c1ccc(OCCSCc2nnc(-c3ccc(OCc4cccnc4)cc3)o2)cc1 [Example 100, 3-{4-[5-(2-phenoxy-ethylsulfanylmethyl)-[1,3,4]oxadiazol-2-yl]-phenoxymethyl}-pyridine] | 111 to 112 °C
CN(C)CCCOc1ccc(-c2nnc(CSCCOc3ccccc3)n2Cc2ccccc2)cc1.O=C(O)C(=O)O [Example 246, (3-{4-[4-benzyl-5-(2-phenoxyethylsulfanylmethyl)-4H-[1,2,4]triazol-3-yl]-phenoxy}-propyl)-dimethyl-amine, oxalic acid salt] | 88 to 92 °C
c1ccc(OCCSCc2nnc(-c3ccc(OCCCN4CCCCCC4)cc3)o2)cc1 [Example 83, 1-(3-{4-[5-(2-phenoxy-ethylsulfanylmethyl)-[1,3,4]oxadiazol-2-yl]-phenoxy}-propyl)-azepane] | 50 °C
CN(C)CCCCCCCOc1ccc(-c2nnc(CSCCOc3ccccc3)o2)cc1 [Example 71, dimethyl-(7-{4-[5-(2-phenoxy-ethylsulfanylmethyl)-[1,3,4]oxadiazol-2-yl]-phenoxy}-heptyl)-amine] | 39 to 40 °C
Nc1ccc(-c2nnc(CSCCOc3ccccc3)o2)cc1 [Example 116, 4-[5-(2-phenoxy-ethylsulfanylmethyl)-[1,3,4]oxadiazol-2-yl]-phenylamine] | 126 to 130 °C
c1ccc(OCCSCc2nnc(-c3ccc(OCCN4CCCCC4)cc3)o2)cc1 [Example 72, 1-(2-{4-[5-(2-phenoxy-ethylsulfanylmethyl)-[1,3,4]oxadiazol-2-yl]-phenoxy}-ethyl)-piperidine] | 70 °C
CNCCCOc1ccc(-c2nnc(CSCCOc3ccccc3)o2)cc1 [Example 77, methyl-(3-{4-[5-(2-phenoxy-ethylsulfanylmethyl)-[1,3,4]oxadiazol-2-yl]-phenoxy}-propyl)-amine] | 40 to 44 °C
CN(C)CCCCCNC(=O)c1ccc(-c2nnc(CSCCOc3ccccc3)o2)cc1 [Example 56, N-(5-dimethylaminopentyl)-4-[5-(2-phenoxyethylsulfanylmethyl)-[1,3,4]oxadiazol-2-yl]-benzamide] | 83 to 89 °C
CN(C)CCCCCOc1ccc(-c2nnc(CSCCOc3ccccc3)o2)cc1 [Example 69, dimethyl-(5-{4-[5-(2-phenoxy-ethylsulfanylmethyl)-[1,3,4]oxadiazol-2-yl]-phenoxy}-pentyl)-amine] | 51 to 54 °C
CN(C)CCNC(=O)c1ccccc1-c1nnc(CSCCOc2ccccc2)o1 [Example 64, N-(2-dimethylamino-ethyl)-2-[5-(2-phenoxy-ethylsulfanylmethyl)-[1,3,4]oxadiazol-2-yl]-benzamide] | 80 to 85 °C
NCCCOc1ccc(-c2nnc(CSCCOc3ccccc3)o2)cc1 [Example 84, 3-{4-[5-(2-phenoxy-ethylsulfanylmethyl)-[1,3,4]oxadiazol-2-yl]-phenoxy}-propylamine] | 30 to 35 °C
CN(C)CCCOc1ccc(-c2nnc(CCc3ccc4ccccc4c3)o2)cc1 (as salt: hydrochloride) [Example 205, Dimethyl-{3-[4-(5-naphthalene-2-ylethyl-[1,3,4]oxadiazol-2-yl)phenoxy]propyl}amine] | 208 to 210 °C
